Earlier results in patent US20220054402A1, “COMPOSITIONS AND METHODS FOR EXTRACTING, STABILIZING, AND MAN[…] DOSAGE FORMS OF PSILOCIN, P[…], ENTHEOGENS, AND MEDICINAL MUSHROOMS AS NANO-D[…] DELIVERY STRUCTURES” (priority 2020, published 2022).

Experiments:
[1] = molecular target: serotonin 5-HT2A receptor (Homo sapiens, UniProt P28223); settings: psilocin versus psilocybin
[2] = β-glucan embedded in chitin cell walls
[3] = oral ingestion

Chain of serotonin 5-HT2A receptor (P28223 whole entry): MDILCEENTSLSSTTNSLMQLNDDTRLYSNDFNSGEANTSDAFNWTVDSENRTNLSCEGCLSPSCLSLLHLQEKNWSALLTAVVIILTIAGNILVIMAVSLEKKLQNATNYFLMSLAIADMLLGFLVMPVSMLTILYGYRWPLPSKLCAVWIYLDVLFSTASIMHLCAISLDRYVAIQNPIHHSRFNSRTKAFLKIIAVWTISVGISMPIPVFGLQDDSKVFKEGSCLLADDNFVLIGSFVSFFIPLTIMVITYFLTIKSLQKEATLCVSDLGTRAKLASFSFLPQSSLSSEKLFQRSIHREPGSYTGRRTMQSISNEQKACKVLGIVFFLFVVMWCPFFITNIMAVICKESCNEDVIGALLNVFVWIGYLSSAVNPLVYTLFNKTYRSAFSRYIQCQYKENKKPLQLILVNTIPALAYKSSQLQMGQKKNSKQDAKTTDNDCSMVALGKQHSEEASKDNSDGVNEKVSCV

For CN(C)CCc1c[nH]c2cccc(O)c12 [Psilocin, 4-hydroxy-NN-dimethyltryptamine], the “affinity for binding the serotonin 5-HT2A receptor relative to psilocybin” value [1] is listed as “more than 200 times”.

For β-glucan, the bioavailability [2] is given as “less than 5%”.

For COc1cc(CCN)cc(OC)c1OC [Mescaline, 5-trimethoxyphenethylamine], the “reported onset time of effects from ingesting” value [3] is listed as 60 to 180 min.
